Experiment [1] has as its target Recombinant, full length human FLAG-tagged ATM (Homo sapiens (Human), UniProt Q13315). Put plainly: ATM ELISA for p53 S15 phosphorylation. Format: biochemical. The conditions noted are these: 0.75 nM ATM, 25 nM p53, 10 μM ATP, 30 min at 20° C.; read-out: ATM BIO IC50. The procedure: ATM: Recombinant, full length human FLAG-tagged ATM activity (Eurofins 14-933) was measured in an ELISA for p53 S15 phosphorylation, in a 384 well V-bottom polypropylene plate (Greiner Bio One 781280). Reactions contained 0.75 nM ATM, 25 nM full length myc tagged p53 (Eurofins 23-034), 10 μM UltraPure ATP (Promega V915B) and serial dilutions of inhibitors (0.1% DMSO final) in 25 mM HEPES, pH 7.5. 5 mM MgCl2, 2.5 mM MnCl2, 0.006% Brij-35, 0.5% glycerol, 0.1 mg/ml BSA, 0.5 mM DTT and were allowed to proceed for 30 min at 20° C. 70 mM EDTA final terminated the kinase reactions. An aliquot of the terminated reaction (25 μl) was transferred to a 384-well, high binding microplate (Greiner Bio One 781061), precoated with anti-myc capture antibody overnight (Millipore 05-724) diluted in 1:1000 in PBS, then blocked with Odyssey blocking buffer (LI-COR Biosciences 92740000) for 60 min at 20° C. The terminated reaction was allowed to capture for 2 h at 20° C. Phosphorylation was measured using an antibody specific to p53 S15 phosphorylation (1:5000 Abcam ab38497), anti-rabbit HRP (1:1000 Cell Signalling Technology, 7074) and TMB (ab171522). Antibodies were diluted in Odyssey blocking buffer and incubated for 60 min at 20° C. Three washes with PBS containing 0.05% (v/v) Tween 20 (PBS-T) were performed between each incubation. The TMB reaction was stopped with an equal volume of 0.2 M sulfuric acid and absorbance read at 450 nm on the Perkin Elmer Envision within 30 min of terminating the reaction. […] IC50 values represent the mean from at least two independent experiments.
On the technique in general: In an ELISA, binding on a coated surface is turned into a signal by an enzyme label.

A further experiment concerns the target cellular ATM activity (Homo sapiens (Human), UniProt Q13315). Put plainly: Inhibition of cellular ATM activity: etoposide-stimulated KAP1 phosphorylation in U20S cells. Format: cell-based. The conditions noted are these: 100 μM etoposide, 60 min, read-out: ATM CELL IC50. The procedure: Inhibition of cellular ATM activity was determined by changes in etoposide-stimulated KAP1 phosphorylation, based on the work of Guo et al. 2014.
Cryopreserved U20S cells were plated overnight at 6 k cells/well in black walled, clear bottomed 384 well plates (Greiner Bio One 781090). After overnight incubation (37 C, 5% CO2), cells were incubated with titrations of test compounds (0.3% DMSO final) in the presence of 100 μM etoposide (Sigma E1383) to stimulate ATM via induction of double stranded DNA breaks. After 60 min, cells were fixed using 100% cold methanol and incubated at −20° C. for 10 min. Fixed cells were washed with PBS containing 0.05% (v/v) Tween 20 (PBS-T) prior to a 60 minute blocking step in Odyssey blocking buffer (LI-COR Biosciences 92740000). Primary antibodies (1:1000 phosphorylated KAP1: Cell Signalling Technology 4127, 1:5000 total KAP1: Cell Signaling Technology 5868) were diluted in Odyssey blocking buffer and incubated overnight at 4° C., before addition of IRDye(R) conjugated secondary antibodies (LI-COR Biociences 926-32211, LI-COR Biosciences 926-68070) diluted 1:2000 in Odyssey blocking buffer for 60 min at room temperature and detection by LI-COR Odyssey (ImageStudio version 2.1.10, focus offset 4 mm, resolution 169 μm, lowest quality, intensities of 1 and 3 for 700 and 800 channels respectively). Immunoreactivity was quantified and the ratio of phosphorylated KAP1 calculated by dividing by the total KAP1 immunoreactivity. The percentage of inhibition was calculated for each concentration of compound using 100% (100 μM etoposide+30 μM KU-60019) and 0% effect controls (100 μM etoposide+DMSO). IC50 values represent the mean from at least two independent experiments.

Each structure is given as a SMILES string.

Recombinant, full length human FLAG-tagged ATM, sequence (Q13315 whole entry): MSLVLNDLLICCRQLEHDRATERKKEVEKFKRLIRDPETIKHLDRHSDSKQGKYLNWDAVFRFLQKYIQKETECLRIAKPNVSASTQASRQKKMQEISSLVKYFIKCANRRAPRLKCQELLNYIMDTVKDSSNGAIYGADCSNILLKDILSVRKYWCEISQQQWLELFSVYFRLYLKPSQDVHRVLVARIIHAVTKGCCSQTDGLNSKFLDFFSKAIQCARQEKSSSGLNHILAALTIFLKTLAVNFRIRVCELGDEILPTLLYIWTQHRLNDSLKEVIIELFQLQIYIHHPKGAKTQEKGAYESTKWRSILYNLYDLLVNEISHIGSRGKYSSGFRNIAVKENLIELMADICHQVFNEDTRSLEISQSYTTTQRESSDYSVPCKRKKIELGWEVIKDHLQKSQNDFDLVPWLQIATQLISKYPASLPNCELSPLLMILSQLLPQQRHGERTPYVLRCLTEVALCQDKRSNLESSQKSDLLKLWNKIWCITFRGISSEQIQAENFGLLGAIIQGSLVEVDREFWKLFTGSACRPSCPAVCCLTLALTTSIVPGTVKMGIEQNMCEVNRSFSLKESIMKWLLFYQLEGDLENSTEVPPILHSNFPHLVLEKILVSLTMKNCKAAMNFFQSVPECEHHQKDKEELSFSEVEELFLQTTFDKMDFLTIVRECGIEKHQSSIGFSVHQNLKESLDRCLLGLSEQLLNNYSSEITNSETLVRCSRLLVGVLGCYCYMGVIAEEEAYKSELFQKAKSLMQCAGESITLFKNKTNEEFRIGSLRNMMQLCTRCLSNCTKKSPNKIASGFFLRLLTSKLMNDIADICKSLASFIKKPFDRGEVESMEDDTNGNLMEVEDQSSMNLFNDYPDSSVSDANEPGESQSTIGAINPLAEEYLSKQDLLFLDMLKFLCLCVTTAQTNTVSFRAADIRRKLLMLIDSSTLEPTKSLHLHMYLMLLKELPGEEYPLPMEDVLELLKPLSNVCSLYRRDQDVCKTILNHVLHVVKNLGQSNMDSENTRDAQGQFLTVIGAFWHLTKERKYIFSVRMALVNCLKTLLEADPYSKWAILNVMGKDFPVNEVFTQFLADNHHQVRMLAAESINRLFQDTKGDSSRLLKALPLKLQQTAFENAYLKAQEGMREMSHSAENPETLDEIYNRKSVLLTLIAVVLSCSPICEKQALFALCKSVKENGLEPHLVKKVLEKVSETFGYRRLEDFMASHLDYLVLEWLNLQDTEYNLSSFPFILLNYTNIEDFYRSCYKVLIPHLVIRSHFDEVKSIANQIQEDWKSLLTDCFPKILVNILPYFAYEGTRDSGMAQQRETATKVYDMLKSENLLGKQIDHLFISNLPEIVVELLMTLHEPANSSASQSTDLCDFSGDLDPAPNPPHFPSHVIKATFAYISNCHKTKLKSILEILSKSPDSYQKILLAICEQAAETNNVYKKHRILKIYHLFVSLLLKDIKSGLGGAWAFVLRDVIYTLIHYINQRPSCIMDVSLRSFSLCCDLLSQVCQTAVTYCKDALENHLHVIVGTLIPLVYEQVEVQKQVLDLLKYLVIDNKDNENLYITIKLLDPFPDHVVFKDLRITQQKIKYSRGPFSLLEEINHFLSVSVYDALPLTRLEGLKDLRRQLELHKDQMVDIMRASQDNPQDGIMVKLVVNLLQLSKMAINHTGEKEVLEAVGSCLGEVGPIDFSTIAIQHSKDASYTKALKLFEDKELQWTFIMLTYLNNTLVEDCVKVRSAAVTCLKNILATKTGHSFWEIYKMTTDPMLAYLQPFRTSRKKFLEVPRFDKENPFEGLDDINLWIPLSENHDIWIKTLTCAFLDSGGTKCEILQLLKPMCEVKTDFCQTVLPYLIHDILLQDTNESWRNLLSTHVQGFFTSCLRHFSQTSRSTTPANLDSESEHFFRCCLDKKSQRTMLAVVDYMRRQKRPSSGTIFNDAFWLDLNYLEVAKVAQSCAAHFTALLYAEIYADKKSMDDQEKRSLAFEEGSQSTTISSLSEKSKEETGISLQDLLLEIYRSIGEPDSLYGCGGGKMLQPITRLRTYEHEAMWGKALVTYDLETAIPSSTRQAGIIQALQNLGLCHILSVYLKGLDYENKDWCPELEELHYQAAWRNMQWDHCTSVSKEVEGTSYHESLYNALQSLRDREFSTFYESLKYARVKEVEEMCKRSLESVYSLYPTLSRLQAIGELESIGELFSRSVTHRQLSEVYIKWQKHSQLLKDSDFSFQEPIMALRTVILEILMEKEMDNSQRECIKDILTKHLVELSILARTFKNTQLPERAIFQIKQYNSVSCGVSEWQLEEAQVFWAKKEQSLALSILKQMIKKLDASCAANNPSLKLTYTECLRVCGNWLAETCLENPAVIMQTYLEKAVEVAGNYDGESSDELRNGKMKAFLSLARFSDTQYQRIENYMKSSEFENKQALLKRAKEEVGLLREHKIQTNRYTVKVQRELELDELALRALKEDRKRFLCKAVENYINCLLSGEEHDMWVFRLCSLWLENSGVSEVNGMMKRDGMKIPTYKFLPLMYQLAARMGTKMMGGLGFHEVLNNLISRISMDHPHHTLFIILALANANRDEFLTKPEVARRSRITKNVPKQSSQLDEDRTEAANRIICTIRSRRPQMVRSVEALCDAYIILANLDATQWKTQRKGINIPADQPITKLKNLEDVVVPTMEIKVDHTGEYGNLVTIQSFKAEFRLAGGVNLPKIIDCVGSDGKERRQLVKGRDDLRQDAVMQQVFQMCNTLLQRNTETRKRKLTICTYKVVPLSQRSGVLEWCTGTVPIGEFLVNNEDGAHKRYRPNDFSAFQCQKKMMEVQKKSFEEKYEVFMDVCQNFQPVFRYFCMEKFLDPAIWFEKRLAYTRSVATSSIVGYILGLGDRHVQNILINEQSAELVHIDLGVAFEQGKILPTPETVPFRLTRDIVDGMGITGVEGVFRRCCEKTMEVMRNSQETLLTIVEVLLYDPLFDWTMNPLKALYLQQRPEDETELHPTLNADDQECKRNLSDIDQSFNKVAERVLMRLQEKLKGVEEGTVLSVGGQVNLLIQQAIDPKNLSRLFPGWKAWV
cellular ATM activity, sequence (Q13315 whole entry): as above

`COc1ccccc1C[C@H]1CC(F)(F)CCCN1c1cc(N2CCOCC2)cc(=O)[nH]1` [Example 62, (S)-6-(4,4-difluoro-2-(2-methoxybenzyl)azepan-1-yl)-4-morpholinopyridin-2(1H)-one]: the IC50 in experiment [1] was determined as 40.5 nM; at cellular ATM activity, 1250 nM.

For `O=c1cc(N2CCOCC2)cc(N2CCCCC[C@@H]2Cc2ccsc2)[nH]1` [Example 64, (R)-4-morpholino-6-(2-(thiophen-3-ylmethyl)azepan-1-yl)pyridin-2(1H)-one], the results for the concentration for half-maximal inhibition (IC50) (in experiment [1]; at cellular ATM activity) were 42.8 nM and 933 nM, respectively.

As for `COc1ccc(OC)c(C[C@H]2CCCCCN2c2cc(N3CCOCC3)cc(=O)[nH]2)c1` [Example 66], the IC50 in experiment [1] is 18.7 nM; at cellular ATM activity, 603 nM.

Consider `O=c1cc(N2CCOCC2)cc(N2CCCCC[C@@H]2Cc2cccc3c2OCO3)[nH]1` [Example 70, (R)-6-(2-(benzo[d][1,3]dioxol-4-ylmethyl)azepan-1-yl)-4-morpholinopyridin-2(1H)-one], for which the IC50 was determined as 2.4 nM in experiment [1] and 274 nM at cellular ATM activity.

With `O=c1cc(N2CCOCC2)cc(N2CCCC(F)(F)C[C@@H]2Cc2ccccc2)[nH]1` [Example 74, (S)-6-(2-benzyl-4,4-difluoroazepan-1-yl)-4-morpholinopyridin-2(1H)-one], the IC50 was found to be 11.2 nM in experiment [1] and 498 nM at cellular ATM activity.

Turning to `CC1(C)CCCN(c2cc(N3CCOCC3)cc(=O)[nH]2)[C@@H](Cc2ccccc2)C1` [Example 76, (R)-6-(2-benzyl-4,4-dimethylazepan-1-yl)-4-morpholinopyridin-2(1H)-one], the IC50 in experiment [1] is 70.2 nM; on cellular ATM activity it was 2680 nM.

Regarding `O=c1cc(N2CCOCC2)cc(N2CCCCC[C@@H]2Cc2ccccc2F)[nH]1` [Example 78, (R)-6-(2-(2-fluorobenzyl)azepan-1-yl)-4-morpholinopyridin-2(1H)-one], the figures for the IC50 (in experiment [1]; on cellular ATM activity) were 10.8 nM and 318 nM, respectively.

For `C[C@@H]1CCCN(c2cc(N3CCOCC3)cc(=O)[nH]2)[C@@H](Cc2ccccc2)C1` [Example 84, 6-((2R,4R)-2-benzyl-4-methylazepan-1-yl)-4-morpholinopyridin-2(1H)-one], the IC50 in experiment [1] worked out at 47.6 nM; at cellular ATM activity, 864 nM.

With `COc1ccc(F)cc1C[C@H]1CCCCCN1c1cc(N2CCOCC2)cc(=O)[nH]1` [Example 86], the IC50 in experiment [1] stood at 65 nM; at cellular ATM activity, 1380 nM.

For the compound `CO[C@@H]1CCN(c2cc(N3CCOCC3)cc(=O)[nH]2)[C@H]1Cc1ccccc1` [Example 88, 6-((2S,3R)-2-benzyl-3-methoxypyrrolidin-1-yl)-4-morpholinopyridin-2(1H)-one], the IC50 in experiment [1] was found to be 53 nM; on cellular ATM activity, 1660 nM.

As to `O=c1cc(N2CCOCC2)cc(N2CC[C@@H](OC(F)F)[C@@H]2Cc2ccccc2)[nH]1` [Example 90, 6-((2S,3R)-2-benzyl-3-(difluoromethoxy)pyrrolidin-1-yl)-4-morpholinopyridin-2(1H)-one], the figures for the IC50 (in experiment [1]; at cellular ATM activity) were 39.1 nM and 874 nM, respectively.

Turning to `O=c1cc(N2CCOCC2)cc(N2CC[C@@H](F)[C@@H]2Cc2ccccc2)[nH]1` [Example 96, 6-((2S,3R)-2-benzyl-3-fluoropyrrolidin-1-yl)-4-morpholinopyridin-2(1H)-one], the IC50 in experiment [1] was 5.5 nM; at cellular ATM activity it was 270 nM.

For `O=c1cc(N2CCOCC2)cc(N2CCC(F)(F)[C@@H]2Cc2ccccc2)[nH]1` [Example 98, (S)-6-(2-benzyl-3,3-difluoropyrrolidin-1-yl)-4-morpholinopyridin-2(1H)-one], the IC50 in experiment [1] came out at 38.4 nM; on cellular ATM activity, 925 nM.

As for `O=c1cc(N2CCOCC2)cc(N2CC(F)(F)C[C@@H]2Cc2ccccc2)[nH]1` [Example 102, (S)-6-(2-benzyl-4,4-difluoropyrrolidin-1-yl)-4-morpholinopyridin-2(1H)-one], the half-maximal inhibitory concentration (IC50) was found to be 39.6 nM in experiment [1] and 2220 nM on cellular ATM activity.

Broadly, the IC50 is the concentration at which inhibition is half-maximal.

The values above are taken from patent publication US11685734B2, “ATM kinase inhibitors and compositions and methods of use thereof” (CHDI Foundation, Inc., priority 2019, dated 2023).
